Assay results from ChEMBL document CHEMBL1201862, “PubChem BioAssay data set” (2004).
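Protocol summary: plate cells (96-well), add compound at 5 concentrations, incubate 48 h, interpolate endpoints linearly. GI50 = concentration required for 50% inhibition of growth.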 Calls of active or inactive are those of the source. No stated cut-off is given here; in the data, active = GI50 up to about 1.1 µM and inactive = higher.

Experiments:
Experiment in all cases: inhibition of tumour cell growth, NCI panel, 48 h
786-0 = system: 786-0
A498 = system: A498
A549 = system: A549
ACHN = system: ACHN
BT-549 = system: BT-549
CAKI-1 = system: CAKI-1
CCRF-CEM = system: CCRF-CEM
DU-145 = system: DU-145
HCC 2998 = system: HCC 2998
HCT-15 = system: HCT-15
HL-60 = system: HL-60
HOP-62 = system: HOP-62
HT-29 = system: HT-29
Hs-578T = system: Hs-578T
IGROV-1 = system: IGROV-1
K562 = system: K562
KM12 = system: KM12
LOX IMVI = system: LOX IMVI
M14 = system: M14
MCF7 = system: MCF7
MDA-MB-231 = system: MDA-MB-231
MDA-MB-435 = system: MDA-MB-435
MDA-N = system: MDA-N
MOLT-4 = system: MOLT-4
Malme-3M = system: Malme-3M
NCI-H226 = system: NCI-H226
NCI-H23 = system: NCI-H23
NCI-H460 = system: NCI-H460
NCI-H522 = system: NCI-H522
NCI/ADR-RES = system: NCI/ADR-RES
OVCAR-3 = system: OVCAR-3
OVCAR-5 = system: OVCAR-5
OVCAR-8 = system: OVCAR-8
PC-3 = system: PC-3
RPMI-8226 = system: RPMI-8226
RXF 393 = system: RXF 393
SF-268 = system: SF-268
SF-295 = system: SF-295
SF-539 = system: SF-539
SK-MEL-28 = system: SK-MEL-28
SK-MEL-2 = system: SK-MEL-2
SK-MEL-5 = system: SK-MEL-5
SK-OV-3 = system: SK-OV-3
SN12C = system: SN12C
SNB-19 = system: SNB-19
SNB-75 = system: SNB-75
SR = system: SR
SW-620 = system: SW-620
T47D = system: T47D
TK-10 = system: TK-10
UACC-257 = system: UACC-257
UACC-62 = system: UACC-62
UO-31 = system: UO-31

Measured: GI50

Cc1c(C#N)c(N)n(C2OCC(O)C(O)C2O)c(=S)c1C#N (stereo not drawn)
> 100 µM: HCT-15
inactive: 786-0 > 100 µM | A498 > 100 µM | A549 > 100 µM | ACHN > 100 µM | BT-549 > 100 µM | CAKI-1 > 100 µM | CCRF-CEM > 100 µM | DU-145 > 100 µM | HCC 2998 > 100 µM | HL-60 > 100 µM | HOP-62 > 100 µM | HT-29 > 100 µM | Hs-578T 24.5 µM | IGROV-1 > 100 µM | K562 > 100 µM | KM12 > 100 µM | LOX IMVI > 100 µM | M14 > 100 µM | MCF7 > 100 µM | MDA-MB-231 > 100 µM | MDA-MB-435 > 100 µM | MDA-N > 100 µM | MOLT-4 > 100 µM | Malme-3M > 100 µM | NCI-H226 > 100 µM | NCI-H23 > 100 µM | NCI-H460 > 100 µM | NCI-H522 > 100 µM | NCI/ADR-RES > 100 µM | OVCAR-3 > 100 µM | OVCAR-5 > 100 µM | OVCAR-8 > 100 µM | PC-3 > 100 µM | RPMI-8226 > 100 µM | RXF 393 > 100 µM | SF-268 > 100 µM | SF-295 > 100 µM | SF-539 > 100 µM | SK-MEL-28 > 100 µM | SK-MEL-2 21.4 µM | SK-MEL-5 > 100 µM | SK-OV-3 > 100 µM | SN12C > 100 µM | SNB-19 > 100 µM | SNB-75 83.4 µM | SR > 100 µM | SW-620 > 100 µM | T47D > 100 µM | TK-10 > 100 µM | UACC-257 > 100 µM | UACC-62 > 100 µM | UO-31 > 100 µM
